System: Wistar outbred rats
Assay: Single-dose acute toxicity, intragastric administration
Format: in vivo, rat
Settings: for Changes Appearance / Changes Behavior / Changes Body Weight / Changes Feed Intake / Changes Organ Histology / Changes Organ Weight / Changes Water Intake: 14-day follow-up; for Relative organ weight, Adrenal glands / Relative organ weight, Brain / Relative organ weight, Heart / Relative organ weight, Kidneys / Relative organ weight, Liver / Relative organ weight, Lungs with trachea / Relative organ weight, Ovaries / Relative organ weight, Spleen / Relative organ weight, Thymus / Relative organ weight, Testes: after 15 days, M±SEM; for number of animals that died: all dose groups; for Deaths (Dead/ Total): Wistar, rat, in vivo
Protocol: Before administration, the BX-SI043 substance was resuspended in a 1% starch solution. The animals in the treatment groups received suspensions intragastrically in doses of 2000 mg/kg (administered in two equal doses, with a 30–40 min interval), 1000 mg/kg, 600 mg/kg, and 300 mg/kg (administered in single doses).
The animals were monitored daily for any abnormalities. On the 2nd, 7th, and 13th days after administration, the animals were clinically evaluated and weighed, and the consumption of feed and water were measured. On the 14th day, the behavior of the animals was evaluated. On the 15th day, the animals were euthanized, and the lungs (with trachea), heart, thymus, liver, kidneys, spleen, stomach, small intestine, colon, brain, adrenal glands, and testes/ovaries were fixed in 10% neutral formalin for histological evaluation.

[1] = female rats, 300 mg/kg intragastric
[2] = female rats, 600 mg/kg intragastric
[3] = female rats, 1000 mg/kg intragastric
[4] = female rats, 2000 mg/kg intragastric
[5] = male rats, 300 mg/kg intragastric
[6] = male rats, 600 mg/kg intragastric
[7] = male rats, 1000 mg/kg intragastric
[8] = male rats, 2000 mg/kg intragastric

CCOC(=O)c1[nH]c2cc(F)ccc2c1/N=N/N1CCCC1 [BX-SI043, Ethyl (E)-6-fluoro-3-(pyrrolidin-1-yldiazenyl)-1H-indole-2-carboxylate]
Changes Appearance [1]: no | Changes Behavior [1]: no | Changes Body Weight [1]: no | Changes Feed Intake [1]: no | Changes Organ Histology [1]: no | Changes Organ Weight [1]: no | Changes Water Intake [1]: no | Relative organ weight, Adrenal glands [1]: 0,03±0,003 % of body weight | Relative organ weight, Brain [1]: 0,84±0,032 % of body weight | Relative organ weight, Heart [1]: 0,46±0,012 % of body weight | Relative organ weight, Kidneys [1]: 0,87±0,065 % of body weight | Relative organ weight, Liver [1]: 4,79±0,090 % of body weight | Relative organ weight, Lungs with trachea [1]: 0,77±0,037 % of body weight | Relative organ weight, Ovaries [1]: 0,067±0,0043 % of body weight | Relative organ weight, Spleen [1]: 0,37±0,033 % of body weight | Relative organ weight, Thymus [1]: 0,280±0,016 % of body weight | Body weight, M±SEM (female rats, 300 mg/kg intragastric, experiment day 1): 195,3±3,67 g | Body weight, M±SEM (female rats, 300 mg/kg intragastric, experiment day 2): 194,8±3,92 g | Body weight, M±SEM (female rats, 300 mg/kg intragastric, experiment day 7): 220,0±7,86 g | Body weight, M±SEM (female rats, 300 mg/kg intragastric, experiment day 15): 234,7±9,33 g | Changes Appearance [2]: no | Changes Behavior [2]: no | Changes Body Weight [2]: no | Changes Feed Intake [2]: no | Changes Organ Histology [2]: yes | Changes Organ Weight [2]: no | Changes Water Intake [2]: no | Relative organ weight, Adrenal glands [2]: 0,04±0,002 % of body weight | Relative organ weight, Brain [2]: 0,86±0,031 % of body weight | Relative organ weight, Heart [2]: 0,48±0,007 % of body weight | Relative organ weight, Kidneys [2]: 0,78±0,021 % of body weight | Relative organ weight, Liver [2]: 4,64±0,067 % of body weight | Relative organ weight, Lungs with trachea [2]: 0,82±0,044 % of body weight | Relative organ weight, Ovaries [2]: 0,066±0,0032 % of body weight | Relative organ weight, Spleen [2]: 0,33±0,045 % of body weight | Relative organ weight, Thymus [2]: 0,310±0,013 % of body weight | Body weight, M±SEM (female rats, 600 mg/kg intragastric, experiment day 1): 195,2±4,56 g | Body weight, M±SEM (female rats, 600 mg/kg intragastric, experiment day 2): 207,7±4,08 g | Body weight, M±SEM (female rats, 600 mg/kg intragastric, experiment day 7): 222,5±5,43 g | Body weight, M±SEM (female rats, 600 mg/kg intragastric, experiment day 15): 221,2±5,98 g | Changes Appearance [3]: no | Changes Behavior [3]: yes | Changes Body Weight [3]: no | Changes Feed Intake [3]: yes | Changes Organ Histology [3]: yes | Changes Organ Weight [3]: no | Changes Water Intake [3]: no | Relative organ weight, Adrenal glands [3]: 0,04±0,004 % of body weight | Relative organ weight, Brain [3]: 0,97±0,022 % of body weight | Relative organ weight, Heart [3]: 0,52±0,02 % of body weight | Relative organ weight, Kidneys [3]: 0,82±0,027 % of body weight | Relative organ weight, Liver [3]: 4,67±0,23 % of body weight | Relative organ weight, Lungs with trachea [3]: 0,79±0,057 % of body weight | Relative organ weight, Ovaries [3]: 0,085±0,0075 % of body weight | Relative organ weight, Spleen [3]: 0,42±0,05 % of body weight | Relative organ weight, Thymus [3]: 0,270±0,020 % of body weight | Body weight, M±SEM (female rats, 1000 mg/kg intragastric, experiment day 1): 185,7±4,61 g | Body weight, M±SEM (female rats, 1000 mg/kg intragastric, experiment day 2): 192,2±3,94 g | Body weight, M±SEM (female rats, 1000 mg/kg intragastric, experiment day 7): 189,6±6,16 g | Body weight, M±SEM (female rats, 1000 mg/kg intragastric, experiment day 15): 199,2±6,46 g | Changes Appearance [4]: yes | Changes Behavior [4]: yes | Changes Body Weight [4]: no | Changes Feed Intake [4]: yes | Changes Organ Histology [4]: yes | Changes Organ Weight [4]: no | Changes Water Intake [4]: no | Relative organ weight, Adrenal glands [4]: 0,04±0,004 % of body weight | Relative organ weight, Brain [4]: 0,93±0,027 % of body weight | Relative organ weight, Heart [4]: 0,41±0,079 % of body weight | Relative organ weight, Kidneys [4]: 0,89±0,033 % of body weight | Relative organ weight, Liver [4]: 4,73±0,167 % of body weight | Relative organ weight, Lungs with trachea [4]: 0,9±0,07 % of body weight | Relative organ weight, Ovaries [4]: 0,088±0,0092 % of body weight | Relative organ weight, Spleen [4]: 0,38±0,028 % of body weight | Relative organ weight, Thymus [4]: 0,310±0,032 % of body weight | Body weight, M±SEM (female rats, 2000 mg/kg intragastric, experiment day 1): 196,5±2,06 g | Body weight, M±SEM (female rats, 2000 mg/kg intragastric, experiment day 2): 205,8±1,64 g | Body weight, M±SEM (female rats, 2000 mg/kg intragastric, experiment day 7): 183,5±11,99 g | Body weight, M±SEM (female rats, 2000 mg/kg intragastric, experiment day 15): 210,8±5,91 g | number of animals that died (female rats): 2 animals | Deaths (Dead/ Total) (female, 300 mg/kg, 14 days): 0/6 | Deaths (Dead/ Total) (female, 600 mg/kg, 14 days): 0/6 | Deaths (Dead/ Total) (female, 1000 mg/kg, 14 days): 1/6 | Deaths (Dead/ Total) (female, 2000 mg/kg, 14 days): 1/6 | Changes Appearance [5]: no | Changes Behavior [5]: no | Changes Body Weight [5]: no | Changes Feed Intake [5]: no | Changes Organ Histology [5]: no | Changes Organ Weight [5]: no | Changes Water Intake [5]: no | Relative organ weight, Adrenal glands [5]: 0,022±0,0012 % of body weight | Relative organ weight, Brain [5]: 0,77±0,020 % of body weight | Relative organ weight, Heart [5]: 0,45±0,012 % of body weight | Relative organ weight, Kidneys [5]: 0,98±0,046 % of body weight | Relative organ weight, Liver [5]: 4,53±0,26 % of body weight | Relative organ weight, Lungs with trachea [5]: 0,71±0,034 % of body weight | Relative organ weight, Spleen [5]: 0,34±0,017 % of body weight | Relative organ weight, Testes [5]: 1,17±0,039 % of body weight | Relative organ weight, Thymus [5]: 0,246±0,0276 % of body weight | Body weight, M±SEM (male rats, 300 mg/kg intragastric, experiment day 1): 202,8±2,87 g | Body weight, M±SEM (male rats, 300 mg/kg intragastric, experiment day 2): 205,7±1,73 g | Body weight, M±SEM (male rats, 300 mg/kg intragastric, experiment day 7): 256,7±4,65 g | Body weight, M±SEM (male rats, 300 mg/kg intragastric, experiment day 15): 280,8±8,21 g | Changes Appearance [6]: no | Changes Behavior [6]: no | Changes Body Weight [6]: no | Changes Feed Intake [6]: no | Changes Organ Histology [6]: yes | Changes Organ Weight [6]: no | Changes Water Intake [6]: no | Relative organ weight, Adrenal glands [6]: 0,028±0,0017 % of body weight | Relative organ weight, Brain [6]: 0,77±0,013 % of body weight | Relative organ weight, Heart [6]: 0,50±0,013 % of body weight | Relative organ weight, Kidneys [6]: 0,94±0,031 % of body weight | Relative organ weight, Liver [6]: 4,69±0,216 % of body weight | Relative organ weight, Lungs with trachea [6]: 0,86±0,108 % of body weight | Relative organ weight, Spleen [6]: 0,32±0,036 % of body weight | Relative organ weight, Testes [6]: 1,28±0,033 % of body weight | Relative organ weight, Thymus [6]: 0,27±0,0191 % of body weight | Body weight, M±SEM (male rats, 600 mg/kg intragastric, experiment day 1): 201,3±2,80 g | Body weight, M±SEM (male rats, 600 mg/kg intragastric, experiment day 2): 222,2±2,63 g | Body weight, M±SEM (male rats, 600 mg/kg intragastric, experiment day 7): 253,3±4,15 g | Body weight, M±SEM (male rats, 600 mg/kg intragastric, experiment day 15): 274,3±6,51 g | Changes Appearance [7]: no | Changes Behavior [7]: yes | Changes Body Weight [7]: no | Changes Feed Intake [7]: yes | Changes Organ Histology [7]: yes | Changes Organ Weight [7]: no | Changes Water Intake [7]: no | Relative organ weight, Adrenal glands [7]: 0,027±0,0022 % of body weight | Relative organ weight, Brain [7]: 0,77±0,036 % of body weight | Relative organ weight, Heart [7]: 0,51±0,022 % of body weight | Relative organ weight, Kidneys [7]: 0,87±0,008 % of body weight | Relative organ weight, Liver [7]: 4,91±0,128 % of body weight | Relative organ weight, Lungs with trachea [7]: 1,00±0,096 % of body weight | Relative organ weight, Spleen [7]: 0,32±0,031 % of body weight | Relative organ weight, Testes [7]: 1,11±0,064 % of body weight | Relative organ weight, Thymus [7]: 0,278±0,0278 % of body weight | Body weight, M±SEM (male rats, 1000 mg/kg intragastric, experiment day 1): 191,0±5,79 g | Body weight, M±SEM (male rats, 1000 mg/kg intragastric, experiment day 2): 206,5±6,61 g | Body weight, M±SEM (male rats, 1000 mg/kg intragastric, experiment day 7): 231,8±12,48 g | Body weight, M±SEM (male rats, 1000 mg/kg intragastric, experiment day 15): 273,0±11,56 g | Changes Appearance [8]: yes | Changes Behavior [8]: yes | Changes Body Weight [8]: no | Changes Feed Intake [8]: yes | Changes Organ Histology [8]: yes | Changes Organ Weight [8]: no | Changes Water Intake [8]: no | Relative organ weight, Adrenal glands [8]: 0,026±0,0014 % of body weight | Relative organ weight, Brain [8]: 0,78±0,024 % of body weight | Relative organ weight, Heart [8]: 0,48±0,046 % of body weight | Relative organ weight, Kidneys [8]: 0,90±0,034 % of body weight | Relative organ weight, Liver [8]: 4,08±0,252 % of body weight | Relative organ weight, Lungs with trachea [8]: 0,75±0,037 % of body weight | Relative organ weight, Spleen [8]: 0,28±0,018 % of body weight | Relative organ weight, Testes [8]: 1,2±0,120 % of body weight | Relative organ weight, Thymus [8]: 0,20±0,0116 % of body weight | Body weight, M±SEM (male rats, 2000 mg/kg intragastric, experiment day 1): 196,0±1,61 g | Body weight, M±SEM (male rats, 2000 mg/kg intragastric, experiment day 2): 212,7±3,91 g | Body weight, M±SEM (male rats, 2000 mg/kg intragastric, experiment day 7): 236,0±1,53 g | Body weight, M±SEM (male rats, 2000 mg/kg intragastric, experiment day 15): 259,7±3,18 g | number of animals that died (male rats): 4 animals | Deaths (Dead/ Total) (male, 300 mg/kg, 14 day): 0/6 | Deaths (Dead/ Total) (male, 600 mg/kg, 14 day): 0/6 | Deaths (Dead/ Total) (male, 1000 mg/kg, 14 day): 1/6 | Deaths (Dead/ Total) (male, 2000 mg/kg, 14 day): 3/6
